Results on 41 compounds are retold here after ChEMBL document CHEMBL4041546, “Synthesis and antimicrobial studies of novel derivatives of 4-(4-formyl-3-phenyl-1H-pyrazol-1-yl)benzoic acid as potent anti-Acinetobacter baumannii agents” (Bioorg Med Chem Lett, 2017).

The test system of data set [1] is Acinetobacter baumannii. The data set can be described thus: Antibacterial activity against Acinetobacter baumannii ATCC 19606 by disk diffusion assay. It is filed as functional. (In agar diffusion tests the substance spreads into inoculated agar from a disc or well.)
For data set [2], the system named is Bacillus subtilis. Nature of the data set: Antibacterial activity against Bacillus subtilis by disk diffusion assay. The data set is classed as functional.
Data set [3] relates to Staphylococcus aureus. The data set can be described thus: Antibacterial activity against methicillin-resistant Staphylococcus aureus ATCC 43300 by disk diffusion assay. It is filed as functional.
For data set [4], the system named is Escherichia coli. The data set can be described thus: Antibacterial activity against Escherichia coli by disk diffusion assay. It is filed as functional.
Data set [5] relates to Acinetobacter baumannii. Nature of the data set: Antibacterial activity against Acinetobacter baumannii ATCC 19606. The data set is classed as functional. As to conditions: ATCC 19606 = CIP 70.34 = JCM 6841.
The subject of data set [6] is Staphylococcus aureus. The data set can be described thus: Antibacterial activity against methicillin-resistant Staphylococcus aureus ATCC 43300. The data set is classed as functional.
Data set [7] is described as follows: Cytotoxicity against HEK293 cells. It is filed as cell-based. To be noted: human.
In data set [8] the test system is Acinetobacter baumannii. Nature of the data set: Potency index, ratio of chloramphenicol MIC to compound MIC for Acinetobacter baumannii ATCC 19606. It is filed as functional, ATCC 19606 = CIP 70.34 = JCM 6841.
Data set [9] concerns Acinetobacter baumannii. The data set can be described thus: Antibacterial activity against Acinetobacter baumannii ATCC 19606 at 0.1 M by disk diffusion assay. The data set is classed as functional, ATCC 19606 = CIP 70.34 = JCM 6841.
In data set [10] the test system is Acinetobacter baumannii. Nature of the data set: Antibacterial activity against Acinetobacter baumannii ATCC 19606 at 0.01 M by disk diffusion assay. It is filed as functional, ATCC 19606 = CIP 70.34 = JCM 6841.
Setting [11] is: ATCC 19606 = CIP 70.34 = JCM 6841.

As usually defined, the MIC is the least concentration at which growth counts as inhibited. A low value points to inhibition by little substance. The term CC50 denotes the concentration at which the toxic effect on the cells reaches its halfway point. Read a low CC50 as greater toxicity to the cells.

In brackets after ≈: the same amount, converted by molar mass. Activity calls are given as the source filed them. The rule behind the calls is not given here.

With `CN1CCN(/N=C/c2cn(-c3ccc(C(=O)O)cc3)nc2-c2ccccc2)CC1`, the “inhibition zone (IZ)” value in data set [1] (setting [11]), in data set [2], in [3] and in [4] was “inactive” in each case.
`O=C(O)c1ccc(-n2cc(/C=N/NC(=O)c3ccccc3O)c(-c3ccccc3)n2)cc1`: the “inhibition zone (IZ)” value in [2] and in [3] was “inactive” each time.
In the case of `O=C(N[C@H](CO)[C@H](O)c1ccc([N+](=O)[O-])cc1)C(Cl)Cl` [CHLORAMPHENICOL], the “inhibition zone (IZ)” value in data set [1] is listed as 18 - 22 mm; in [2], 36 mm; in [3], 25 - 36 mm; in data set [4], 39 mm. This compound registered a minimal inhibitory concentration (MIC) in [5] of 16 µg/mL (≈ 49.5 µM).
With `O=C(O)c1ccc(-n2cc(/C=N/NC(=O)c3cccnc3)c(-c3ccccc3)n2)cc1`, the “inhibition zone (IZ)” value in [2] and in [3] was “inactive” in each case.
On to `O=C(O)c1ccc(-n2cc(CNc3ccc(Br)c(C(F)(F)F)c3)c(-c3ccccc3)n2)cc1`, for which the results for the “inhibition zone (IZ)” value in [2] and in [3] were 12 mm and 15 mm, respectively. Further, in data set [6], the minimum inhibitory concentration (MIC) was 32 µg/mL (≈ 62 µM). This compound also yielded a CC50 in data set [7] of more than 32 µg/mL.
The like results for `O=C(O)c1ccc(-n2cc(CNc3cc(C(F)(F)F)cc(C(F)(F)F)c3)c(-c3ccccc3)n2)cc1` were, in that order, 25 mm, 22 mm, 32 µg/mL (≈ 63.3 µM) and more than 32 µg/mL.
In the case of `CC(=O)N/N=C/c1cn(-c2ccc(C(=O)O)cc2)nc1-c1ccccc1`, the “inhibition zone (IZ)” value in data set [2] and in [3] was “inactive” throughout.
As for `O=C(O)c1ccc(-n2cc(/C=N/NS(=O)(=O)c3ccccc3)c(-c3ccccc3)n2)cc1`, the “inhibition zone (IZ)” value turned out to be 10 mm in [2] and 9 mm in data set [3].
As to `O=C(O)c1ccc(-n2cc(/C=N/Nc3ccc(Cl)cc3Cl)c(-c3ccccc3)n2)cc1`, the “inhibition zone (IZ)” value in data set [1] (setting [11]) and in [4] was “inactive” each time. Besides, the “inhibition zone (IZ)” value in data set [2] stood at 11 mm; in [3], 10 mm.
Turning to `O=C(O)c1ccc(-n2cc(CNc3cc(C(=O)O)cc(C(=O)O)c3)c(-c3ccccc3)n2)cc1`, the “inhibition zone (IZ)” value is listed as 9 mm in [2] and 10 mm in [3].
The like results for `COC(=O)N/N=C/c1cn(-c2ccc(C(=O)O)cc2)nc1-c1ccccc1` were, in that order, “inactive” and “inactive”.
As to `O=C(O)c1ccc(-n2cc(/C=N/Nc3ccccc3)c(-c3ccccc3)n2)cc1`, the “inhibition zone (IZ)” value is reported as 28 mm in [1], 11 mm in data set [2] and 10 mm in [3]. In addition, the “inhibition zone (IZ)” value in data set [4] is “inactive”.
`O=C(O)c1ccc(-n2cc(/C=N/NC(=O)c3ccccc3)c(-c3ccccc3)n2)cc1`: the “inhibition zone (IZ)” value in data set [2] and in [3] was 8 mm each time.
Turning to `O=C(O)c1ccc(-n2cc(/C=N/NC(=O)c3ccccc3F)c(-c3ccccc3)n2)cc1`, the “inhibition zone (IZ)” value in [2] was 11 mm; in data set [3], 10 mm.
The corresponding values for `O=C(O)c1ccc(-n2cc(/C=N/NC(=O)c3ccncc3)c(-c3ccccc3)n2)cc1` are “inactive” and “inactive”.
For `O=C(O)c1ccc(-n2cc(/C=N/Nc3ccc(Cl)cc3)c(-c3ccccc3)n2)cc1`, the inhibition zone (IZ) in [1] was 54 mm; in [2], 13 mm; in [3], 16 mm; in data set [4], 8 mm. Moreover, the MIC in [5] stood at 4 µg/mL (≈ 9.6 µM). In data set [7], this compound showed a CC50 of more than 32 µg/mL. Also, in [8], the Ratio came to 4.
In the case of `NC(=O)N/N=C/c1cn(-c2ccc(C(=O)O)cc2)nc1-c1ccccc1`, the “inhibition zone (IZ)” value in data set [2] and in [3] was “inactive” in each case.
With `Cc1cc(NCc2cn(-c3ccc(C(=O)O)cc3)nc2-c2ccccc2)ccc1F`, the “inhibition zone (IZ)” value in [2] is reported as 16 mm; in data set [3], 15 mm.
Consider `O=C(O)c1ccc(-n2cc(/C=N/Nc3ccc(F)cc3)c(-c3ccccc3)n2)cc1`, for which the “inhibition zone (IZ)” value is given as more than 85 mm in [9]; 18 mm in data set [2]; 16 mm in [3]; 32 mm in data set [10]; 8 mm in [4]. Besides, the minimal inhibitory concentration (MIC) in data set [5] is 8 µg/mL (≈ 20 µM). The compound further came in with a CC50 in data set [7] of more than 32 µg/mL.
Take `O=C(O)c1ccc(-n2cc(/C=N/NC(=O)c3ccc(O)cc3)c(-c3ccccc3)n2)cc1`: the “inhibition zone (IZ)” value in data set [2] and in [3] was “inactive” throughout.
Take `O=C(O)c1ccc(-n2cc(CNc3cccc(C(=O)O)c3)c(-c3ccccc3)n2)cc1`: the “inhibition zone (IZ)” value in [2] and in data set [3] was “inactive” in each case.
For `O=C(O)c1cn(C2CC2)c2cc(N3CCNCC3)c(F)cc2c1=O` [CIPROFLOXACIN], the “inhibition zone (IZ)” value in data set [1] was 32 - 37 mm; in [2] it was 44 mm; in data set [3], 36 mm; in [4], 39 mm. Further, the lowest concentration to inhibit growth in data set [5] (MIC) was 1.56 µg/mL (≈ 4.71 µM).
Take `O=C(O)c1ccc(-n2cc(CNc3ccc(F)c([N+](=O)[O-])c3)c(-c3ccccc3)n2)cc1`: the “inhibition zone (IZ)” value worked out at 12 mm in data set [2] and 14 mm in [3].
As for `O=C(O)c1ccc(-n2cc(CNc3ccc(CCO)cc3)c(-c3ccccc3)n2)cc1`, the “inhibition zone (IZ)” value in [2] stood at 10 mm; in data set [3], 9 mm.
For the compound `Cc1cc(NCc2cn(-c3ccc(C(=O)O)cc3)nc2-c2ccccc2)ccc1Br`, the “inhibition zone (IZ)” value in data set [2] is recorded as 17 mm; in [3], 15 mm. In data set [6], the MIC worked out at 16 µg/mL (≈ 34.6 µM). This compound yielded a 50% cytotoxic concentration (CC50) in data set [7] of 17.9 µg/mL (≈ 38.7 µM).
Take `O=C(O)c1ccc(-n2cc(/C=N/NC(=O)c3ccc(F)cc3)c(-c3ccccc3)n2)cc1`: the “inhibition zone (IZ)” value in data set [2] and in data set [3] was “inactive” each time.
Turning to `Cc1ccccc1NCc1cn(-c2ccc(C(=O)O)cc2)nc1-c1ccccc1`, the entries for the “inhibition zone (IZ)” value in data set [2] and in data set [3] were 16 mm and 14 mm, respectively.
In the case of `O=C(O)c1ccc(-n2cc(/C=N/Nc3ccc([N+](=O)[O-])cc3)c(-c3ccccc3)n2)cc1`, in data set [1], the “inhibition zone (IZ)” value worked out at 22 mm. Further, the “inhibition zone (IZ)” value in data set [2], in [3] and in data set [4] was “inactive” each time.
On to `O=C(O)c1ccc(-n2cc(CNc3ccc(F)c(C(F)(F)F)c3)c(-c3ccccc3)n2)cc1`, for which the “inhibition zone (IZ)” value in data set [2] is reported as 22 mm; in data set [3], 21 mm. Also, inhibition of growth in [6] (MIC) required 32 µg/mL (≈ 70.3 µM). This compound displayed a CC50 in data set [7] of more than 32 µg/mL.
As to `O=C(O)c1ccc(-n2cc(CNc3ccc(F)c(Cl)c3)c(-c3ccccc3)n2)cc1`, the “inhibition zone (IZ)” value in data set [2] and in data set [3] was 11 mm in each case.
Consider `Cc1ccc(S(=O)(=O)N/N=C/c2cn(-c3ccc(C(=O)O)cc3)nc2-c2ccccc2)cc1`, for which the “inhibition zone (IZ)” value is 11 mm in [2] and 12 mm in [3].
On to `O=C(O)c1ccc(-n2cc(/C=N/NC(=O)c3ccc4ccccc4c3O)c(-c3ccccc3)n2)cc1`, for which the “inhibition zone (IZ)” value in [2] and in data set [3] was “inactive” each time.
Regarding `O=C(O)c1ccc(-n2cc(CNc3ccc(Cl)c(C(F)(F)F)c3)c(-c3ccccc3)n2)cc1`, the “inhibition zone (IZ)” value in data set [2] and in [3] was 17 mm each time. In data set [6], this compound showed an MIC of 32 µg/mL (≈ 67.8 µM). The compound also came in with a CC50 in data set [7] of more than 32 µg/mL.
Take `NC(=S)N/N=C/c1cn(-c2ccc(C(=O)O)cc2)nc1-c1ccccc1`: the “inhibition zone (IZ)” value in [2] and in data set [3] was “inactive” each time.
For the compound `O=C(O)c1ccc(-n2cc(/C=N/Nc3ccccc3F)c(-c3ccccc3)n2)cc1`, the “inhibition zone (IZ)” value in [1] came to 34 mm; in data set [2], 17 mm; in data set [3], 13 mm. Further, the “inhibition zone (IZ)” value in [4] is “inactive”.
Turning to `O=C(O)c1ccc(-n2cc(CNc3ccc(Cl)c(Cl)c3)c(-c3ccccc3)n2)cc1`, the “inhibition zone (IZ)” value in data set [2] and in [3] was 11 mm throughout. The lowest concentration to inhibit growth in data set [6] (MIC) was 16 µg/mL (≈ 36.5 µM). The same compound registered a CC50 in data set [7] of 18 µg/mL (≈ 41.1 µM).
Take `N/N=C/c1cn(-c2ccc(C(=O)O)cc2)nc1-c1ccccc1`: the “inhibition zone (IZ)” value in data set [1] (setting [11]) and in data set [4] was “inactive” each time. The “inhibition zone (IZ)” value in data set [2] and in data set [3] was 7 mm in each case.
Turning to `COc1ccc(C(=O)N/N=C/c2cn(-c3ccc(C(=O)O)cc3)nc2-c2ccccc2)cc1`, the “inhibition zone (IZ)” value came out at 11 mm in data set [2] and 8 mm in data set [3].
For `Cc1ccc(NCc2cn(-c3ccc(C(=O)O)cc3)nc2-c2ccccc2)cc1Cl`, the figures for the “inhibition zone (IZ)” value in data set [2] and in data set [3] were 16 mm and 13 mm, respectively. This compound also registered an MIC in data set [6] of 16 µg/mL (≈ 38.3 µM). This compound gave a CC50 in data set [7] of 20 µg/mL (≈ 47.9 µM).
Regarding `O=C(O)c1ccc(-n2cc(/C=N/Nc3ccc(Br)cc3)c(-c3ccccc3)n2)cc1`, the “inhibition zone (IZ)” value in [1] came to 42 mm; in data set [2] it was 10 mm; in data set [3], 10 mm. Further, the “inhibition zone (IZ)” value in data set [4] was “inactive”. Further, it took 8 µg/mL (≈ 17.3 µM) to inhibit growth in data set [5] (MIC). Moreover, the CC50 in [7] is more than 32 µg/mL.
Regarding `O=C(O)c1ccc(N/N=C/c2cn(-c3ccc(C(=O)O)cc3)nc2-c2ccccc2)cc1`, the “inhibition zone (IZ)” value in [1] (setting [11]), in data set [2], in data set [3] and in data set [4] was “inactive” each time.
